# Data taken from PMC9926234, “Iterative computational design and crystallographic screening identifies potent inhibitors targeting the Nsp3 macrodomain of SARS-CoV-2” (Proceedings of the National Academy of Sciences of the …, 2023).
# Like-named read-outs stand apart in the source and are kept apart here.
# How the values were obtained:
# SARS-CoV-2 NSP3 Mac1 [1] = target: T1, SARS-CoV-2 NSP3 Mac1 (Severe acute respiratory syndrome coronavirus 2, UniProt P0DTD1); assay type: binding; design: contains a conserved macrodomain enzyme (Mac1); conditions: for Spearman est (compound concentration vs apparent Tm): DSF dose responsiveness, 1 µM nsp3 mac1, adj p given
# Experimental: DSF and associated compound handling was performed as described ([12]), with 5 µM dye “Fluorescent Yellow” (Jacquard iDye Cat #JID1405) used in place of SYPRO Orange. Compounds were tested in triplicate, at seven concentrations in two-fold serial dilutions, at a top concentration of either 1,000 or 100 μM. To minimize experimental noise arising from plate location-based effects on Tma, all concentrations and replicates for each compound were tested within a single region of the microtiter plates, including a DMSO-only control from which ΔTmas were calculated for that compound. […] For each compound, to determine statistical significance of the dose responsive thermal shift, the Spearman’s coefficient was calculated between compound concentration and ΔTma.
# SARS-CoV-2 NSP3 Mac1 [2] = target: T1, SARS-CoV-2 NSP3 Mac1; assay type: binding; conditions: for Refined occupancy: ligand occupancy after refinement (phenix.refine); for HIT*: true hit = binding in crystallographic soaking or the HTRF-based binding assay
# [3] = PanDDA event map background density correction, crystal soak, compound concentration 100 mM
# [4] = PanDDA event map, 1 minus background density correction, crystal soaking of Mac1
# [5] = ligand modeled in the crystal structure, crystal soak, compound concentration 100 mM
# [6] = PanDDA 1-BDC value of the event, crystal soak, compound concentration 100 mM, per dataset
# [7] = PanDDA event map, 1-BDC of the hit dataset, crystal soak, compound concentration 100 mM
# [8] = crystal soak, compound concentration 100 mM, per dataset
# [9] = ligand modeled in the crystal structure, crystal soak, compound concentration 100 mM, per dataset
# [10] = PanDDA 1-BDC of the event, compound stock 100 mM, Echo dispense volume 80 nl
# [11] = PanDDA event map 1-BDC, crystal soak, Compound_concentration 100 mM, PanDDA run dmso_34 or nohits_35 per dataset
# [12] = PanDDA event map, crystal soak, Compound_concentration 100 mM, Echo_dispense_volume 40 nl
# [13] = crystal soak, Compound_concentration 100 mM, Echo dispense 40 nl, PanDDA run dmso_34 or nohits_35 per dataset
# [14] = crystal soak, Compound_concentration 100 mM, Echo_dispense_volume 40 nl, PanDDA run (background map) dmso_34, nohits_35 or nohits_62
# [15] = crystal soak, compound stock 100 mM, Echo dispense volume 80 nl
# [16] = ligand modeled, crystal soak, Compound_concentration 100 mM, Echo_dispense_volume 40 nl
structure (smiles),measurement,setting,value
Cc1nc2c(C(=O)OCc3ccnc(N(C)C)c3)ccnc2[nH]1 [ZINC000924094620],Spearman est (compound concentration vs apparent Tm),SARS-CoV-2 NSP3 Mac1 [1],0.62
c1ccc2c(-c3noc(CCCc4nc(C5CC5)no4)n3)n[nH]c2c1 [ZINC000356759652],Spearman est (compound concentration vs apparent Tm),SARS-CoV-2 NSP3 Mac1 [1],0.72
CN(Cc1ncc(Cl)n1C)c1ncnc(N)n1 [ZINC001337833291],Spearman est (compound concentration vs apparent Tm),SARS-CoV-2 NSP3 Mac1 [1],0.82
CN(c1cc(NC2CC2)ncn1)C1CCCN(c2cccnn2)C1 (stereo not drawn) [ZINC000413143167],Spearman est (compound concentration vs apparent Tm),SARS-CoV-2 NSP3 Mac1 [1],−0.41
O=C(c1ncnc2[nH]ccc12)N1CC(n2ccnn2)C1 [ZINC001335091110],Spearman est (compound concentration vs apparent Tm),SARS-CoV-2 NSP3 Mac1 [1],−0.36
same,DSF max dTma,SARS-CoV-2 NSP3 Mac1 [1]; maximal thermal upshift,0.04 ˚C
Cc1oc(-c2cccs2)nc1Cc1nc(-c2cncnc2N)no1 [Z3789],DSF max dTma,SARS-CoV-2 NSP3 Mac1 [1]; maximal thermal upshift vs DMSO control,0.56 °C
O=C(NC1C=CC(C(=O)O)C1)c1ncnc2sccc12 (stereo not drawn) [Compound Z6645],1-BDC,SARS-CoV-2 NSP3 Mac1 [2]; [3],0.4
same,1-BDC (PanDDA),SARS-CoV-2 NSP3 Mac1 [2]; [4],0.4
same,Modeled?,SARS-CoV-2 NSP3 Mac1 [2]; [5],TRUE
same,Refined occupancy,SARS-CoV-2 NSP3 Mac1 [2]; crystal soaking of Mac1,80
O=C(CCCCc1ccc(Br)cc1)NC(CCc1cn[nH]c1)C(=O)O (stereo not drawn) [Compound Z3213],1-BDC,SARS-CoV-2 NSP3 Mac1 [2]; [3],0.11
CC(F)(F)c1cncc(C(=O)NC(Cc2cncc(Br)c2)C(=O)O)c1 (stereo not drawn) [Compound Z3140],1-BDC,SARS-CoV-2 NSP3 Mac1 [2]; [3],0.1
same,1-BDC (PanDDA),SARS-CoV-2 NSP3 Mac1 [2]; [4],0.1
same,Modeled?,SARS-CoV-2 NSP3 Mac1 [2]; [5],TRUE
same,Refined occupancy,SARS-CoV-2 NSP3 Mac1 [2]; crystal soaking of Mac1,20
Nc1nc(N)c2ncn(Cc3csc(C4CC4)n3)c2n1 [Compound Z8585],1-BDC,SARS-CoV-2 NSP3 Mac1 [2]; [6],0.18
same,1-BDC,SARS-CoV-2 NSP3 Mac1 [2]; [7],0.4
same,1-BDC,SARS-CoV-2 NSP3 Mac1 [2]; [4],0.18
same,PanDDA hit?,SARS-CoV-2 NSP3 Mac1 [2]; [8],TRUE
same,Modeled?,SARS-CoV-2 NSP3 Mac1 [2]; [9],TRUE
same,Refined occupancy,SARS-CoV-2 NSP3 Mac1 [2]; crystal soaking of Mac1,36
OCC1CN(c2ncnc3[nH]c4cc(F)ccc4c23)CC2(CCC2)O1 (stereo not drawn) [LL123_0025],1-BDC,SARS-CoV-2 NSP3 Mac1 [2]; [10],0.1
same,1-BDC,SARS-CoV-2 NSP3 Mac1 [2]; [11],0.09
same,1-BDC (PanDDA),SARS-CoV-2 NSP3 Mac1 [2]; [4],0.07
same,1-BDC,SARS-CoV-2 NSP3 Mac1 [2]; [12],0.07
same,PanDDA hit?,SARS-CoV-2 NSP3 Mac1 [2]; [13],TRUE
same,PanDDA hit?,SARS-CoV-2 NSP3 Mac1 [2]; [14],TRUE
same,PanDDA hit?,SARS-CoV-2 NSP3 Mac1 [2]; [15],TRUE
same,Modeled?,SARS-CoV-2 NSP3 Mac1 [2]; [16],TRUE
same,Refined occupancy,SARS-CoV-2 NSP3 Mac1 [2]; crystal soaking of Mac1,14
same,HIT*,SARS-CoV-2 NSP3 Mac1 [2],Y
O=C(NS(=O)(=O)Cc1ccc(Br)c(F)c1)c1cnn2ccccc12 [Compound Z3209],1-BDC (PanDDA),SARS-CoV-2 NSP3 Mac1 [2]; [4],0.38
same,1-BDC,SARS-CoV-2 NSP3 Mac1 [2]; [12],0.38
same,PanDDA hit?,SARS-CoV-2 NSP3 Mac1 [2]; [14],TRUE
same,Modeled?,SARS-CoV-2 NSP3 Mac1 [2]; [16],TRUE
same,Refined occupancy,SARS-CoV-2 NSP3 Mac1 [2]; crystal soaking of Mac1,76
Nc1ncc(S(=O)(=O)N2CC(F)(F)C[C@H]2C(=O)O)cn1 [Z1314],HIT*,SARS-CoV-2 NSP3 Mac1 [2],Y
FC1(F)CCCC(Nc2ncnc3[nH]ccc23)C1 (stereo not drawn) [SRH-0014],1-BDC,SARS-CoV-2 NSP3 Mac1 [2]; [11],0.09
same,PanDDA hit?,SARS-CoV-2 NSP3 Mac1 [2]; [13],TRUE
O=C1OCCN1C1CCN(c2ncnc3[nH]c4cc(F)ccc4c23)C1 (stereo not drawn) [Compound Z5107],1-BDC,SARS-CoV-2 NSP3 Mac1 [2]; [10],0.09
same,1-BDC,SARS-CoV-2 NSP3 Mac1 [2]; [11],0.06
same,1-BDC (PanDDA),SARS-CoV-2 NSP3 Mac1 [2]; [4],0.06
same,1-BDC,SARS-CoV-2 NSP3 Mac1 [2]; [12],0.06
same,PanDDA hit?,SARS-CoV-2 NSP3 Mac1 [2]; [13],TRUE
same,PanDDA hit?,SARS-CoV-2 NSP3 Mac1 [2]; [14],TRUE
same,PanDDA hit?,SARS-CoV-2 NSP3 Mac1 [2]; [15],TRUE
same,Modeled?,SARS-CoV-2 NSP3 Mac1 [2]; [16],TRUE
same,Refined occupancy,SARS-CoV-2 NSP3 Mac1 [2]; crystal soaking of Mac1,12
Nc1ncnc2c1ncn2CCCc1ccsc1 [Compound Z5972],1-BDC,"SARS-CoV-2 NSP3 Mac1 [2]; PanDDA 1-BDC (background density correction) of the event, crystal soak 100 mM, PanDDA run dmso_34",0.16
same,PanDDA hit?,"SARS-CoV-2 NSP3 Mac1 [2]; crystal soak, compound concentration 100 mM, PanDDA run dmso_34, series docking_lead-like_1",TRUE
Nc1ccc(C(=O)N2CC(c3nnc(S)o3)C2)c(Cl)n1 [Compound Z1366],1-BDC,SARS-CoV-2 NSP3 Mac1 [2]; [3],0.1
Cc1oc(C(N)=O)cc1S(=O)(=O)Nc1ccc(Br)c(C#N)c1 [Compound Z6708],1-BDC,SARS-CoV-2 NSP3 Mac1 [2]; [3],0.26
same,1-BDC (PanDDA),SARS-CoV-2 NSP3 Mac1 [2]; [4],0.26
same,Modeled?,SARS-CoV-2 NSP3 Mac1 [2]; [5],TRUE
same,Refined occupancy,SARS-CoV-2 NSP3 Mac1 [2]; crystal soaking of Mac1,52
CC(=O)Nc1nc(C)c(S(=O)(=O)Nc2ccc(C)c(C#N)c2)s1 [Compound Z6707],1-BDC (PanDDA),SARS-CoV-2 NSP3 Mac1 [2]; [4],0.23
same,1-BDC,SARS-CoV-2 NSP3 Mac1 [2]; [12],0.23
same,PanDDA hit?,SARS-CoV-2 NSP3 Mac1 [2]; [14],TRUE
same,Modeled?,SARS-CoV-2 NSP3 Mac1 [2]; [16],TRUE
same,Refined occupancy,SARS-CoV-2 NSP3 Mac1 [2]; crystal soaking of Mac1,46
Nc1ncc(S(=O)(=O)N2CC(F)(F)C[C@H]2C(=O)O)cn1 [Compound Z1314],1-BDC,SARS-CoV-2 NSP3 Mac1 [2]; [6],0.49
same,1-BDC,SARS-CoV-2 NSP3 Mac1 [2]; [7],0.3
same,1-BDC,SARS-CoV-2 NSP3 Mac1 [2]; [4],0.19
same,PanDDA hit?,SARS-CoV-2 NSP3 Mac1 [2]; [8],TRUE
same,Refined occupancy,SARS-CoV-2 NSP3 Mac1 [2]; crystal soaking of Mac1,38
O=C(O)Cc1ccc(CNC(=O)c2ccnc3ccsc23)cc1 [Compound Z6625],1-BDC (PanDDA),SARS-CoV-2 NSP3 Mac1 [2]; [4],0.12
same,1-BDC,SARS-CoV-2 NSP3 Mac1 [2]; [12],0.12
same,PanDDA hit?,SARS-CoV-2 NSP3 Mac1 [2]; [14],TRUE
same,Modeled?,SARS-CoV-2 NSP3 Mac1 [2]; [16],TRUE
same,Refined occupancy,SARS-CoV-2 NSP3 Mac1 [2]; crystal soaking of Mac1,24
Cc1nc(Cn2cnc3c(N)nc(N)nc32)cs1 [Compound Z8569],1-BDC,SARS-CoV-2 NSP3 Mac1 [2]; [6],0.4
same,1-BDC,SARS-CoV-2 NSP3 Mac1 [2]; [4],0.4
same,PanDDA hit?,SARS-CoV-2 NSP3 Mac1 [2]; [8],TRUE
same,Modeled?,SARS-CoV-2 NSP3 Mac1 [2]; [9],TRUE
same,Refined occupancy,SARS-CoV-2 NSP3 Mac1 [2]; crystal soaking of Mac1,80
CCC(=O)Nc1nc(C)c(S(=O)(=O)Nc2cccc(C#N)c2)s1 [Compound Z0611],1-BDC (PanDDA),SARS-CoV-2 NSP3 Mac1 [2]; [4],0.33
same,1-BDC,SARS-CoV-2 NSP3 Mac1 [2]; [12],0.33
same,PanDDA hit?,SARS-CoV-2 NSP3 Mac1 [2]; [14],TRUE
same,Modeled?,SARS-CoV-2 NSP3 Mac1 [2]; [16],TRUE
same,Refined occupancy,SARS-CoV-2 NSP3 Mac1 [2]; crystal soaking of Mac1,66
